Test results as given in patent publication US10766928B2, “Targeted conformationally-constrained kinked endosomal disrupting peptides” (priority 2012, dated 2020).
Values after ≈ are worked out from the molar mass of the structure shown. Read-outs that look alike come from different tables or passages of the source. Non-standard residues stand in square brackets, D forms with d. Residues, ends and D or L forms follow the SMILES beside them. *: point of attachment. Pentanoyl(5-NH-cholesteryl) = CC(C)CCC[C@@H](C)[C@H]1CC[C@H]2[C@@H]3CC=C4C[C@@H](NCCCCC(=O)*)CC[C@]4(C)[C@H]3CC[C@]12C; Cholesteryloxycarbonyl = CC(C)CCC[C@@H](C)[C@H]1CC[C@H]2[C@@H]3CC=C4C[C@@H](OC(=O)*)CC[C@]4(C)[C@H]3CC[C@]12C; Palmitoyl = CCCCCCCCCCCCCCCC(=O)*; PEG3 = NCCOCCOCCOCCC(=O)O; Pra = C#CC[C@H](N)C(=O)O; Aib = CC(C)(N)C(=O)O; Ahx = NCCCCCC(=O)O; Ava = NCCCCC(=O)O; βAla = NCCC(=O)O

Columns and labels:
[1] = test system: endosomes of Jurkat lymphocytes; assay: Endosome disruption in Jurkat lymphocytes: release of carboxyfluorescein from disulfide probe Compound 2, flow cytometry; settings: for Efficacy (% of 1): % of the effect of compound 1, calculated span of dose-response curve, ± standard deviation; for Efficacy (% of 1) / Efficacy (% of max. 1): Jurkat; for Efficacy (% of max. 1): % change in cellular fluorescence relative to maximal response of Compound 1 (100%)
Summary of the method: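 Human Jurkat cells treated with compounds plus disulfide probe Compound 2 (2.5 μM) for 14 h at 37 °C. Cytoplasmic release of pH-sensitive fluorophore Compound 3 quantified by flow cytometry. IC50 by non-linear regression; efficacy as % fluorescence change relative to Compound 1 maximum (100%).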

[2] = Thermodynamic solubility in PBS (pH 7.4); assay type: physicochemical; settings: for solubility at 24 h / solubility thermodynamic at 24 h: phosphate buffered saline
Description: Values in parentheses represent 95% confidence intervals. N.D., not determined.
Measurements represent duplicate or more replicates, with active peptides subjected to multiple replicates. ND: not determined. The peptide was non-toxic and soluble in cell culture medium at this concentration.

[3] = Table 1, PBS pH 7.4, 24 hours at 22° C., ±S.D., read-out: Solubility (aq.)
[4] = read-out: Potency, Table 2, EC50 ± standard deviation, Jurkat lymphocytes, disulfide-linked fluorescent probe (2.5 μM), 14 h
[5] = read-out: Toxicity, Table 3, IC50, Jurkat, 48 h at 37° C., footnote a: non-toxic and soluble in cell culture medium at this concentration
[6] = pH 7.4, Table 3, PBS pH 7.4, 24 h at 22° C., read-out: Solubility
[7] = read-out: Potency (EC50), Table 1, Jurkat lymphocytes, probe Compound 2 (2.5 μM), 14 hours, 95% confidence interval in neighbouring cell
[8] = pH 7.4, Table 1, PBS pH 7.4, 24 hours at 22° C., ±S.D., read-out: Solubility (aq.)

Row | Structure (SMILES) | EC50 ([1]; 14 h) | IC50 (Jurkat lymphocytes; 48 h) | solubility at 24 h [2, 3] | Efficacy (% of 1) ([1]; Table 2, 14 h) | EC50 [1, 4] | IC50 (Jurkat lymphocytes; [5]) | solubility thermodynamic at 24 h [2, 6] | solubility thermodynamic at 24 h [2, 8] | further results
1 | CC(C)CCC[C@@H](C)[C@H]1CC[C@H]2[C@@H]3CC=C4C[C@@H](OC(=O)NCCC(=O)NCCC(=O)N[C@@H](CCC(=O)O)C(=O)N[C@@H](CCC(=O)O)C(=O)NCCOCCOCCOCCC(=O)NCCOCCOCCOCCC(=O)NC(C)(C)C(=O)NC(C)(C)C(=O)NC(C)(C)C(=O)NC(C)(C)C(=O)N[C@@H](Cc5c[nH]c6ccccc56)C(=O)N[C@@H](Cc5c[nH]c6ccccc56)C(=O)N[C@@H](C)C(=O)N[C@@H](Cc5ccc(O)cc5)C(=O)N[C@@H](Cc5c[nH]c6ccccc56)C(=O)N5CCC[C@H]5C(=O)N5CCC[C@H]5C(=O)N[C@H](C(=O)N[C@@H](C)C(N)=O)C(C)C)CC[C@]4(C)[C@H]3CC[C@]12C [Compound 34, R″ = BEEOOUUUUWWAYWPPVA-CONH2] ({Cholesteryloxycarbonyl-βAla-βAla}-EE[PEG3][PEG3][Aib][Aib][Aib][Aib]WWAYWPPVA-NH2) | 100 nM | 17000 nM | 405 µM (≈ 1110 µg/mL) |  |  |  |  |  | 
2 | CC(C)CCC[C@@H](C)[C@H]1CC[C@H]2[C@@H]3CC=C4C[C@@H](NCCCCC(=O)NCCC(=O)N[C@@H](CCC(=O)O)C(=O)N[C@@H](CCC(=O)O)C(=O)NCCOCCOCCOCCC(=O)NCCOCCOCCOCCC(=O)NC(C)(C)C(=O)NC(C)(C)C(=O)NC(C)(C)C(=O)NC(C)(C)C(=O)N[C@@H](Cc5c[nH]c6ccccc56)C(=O)N[C@@H](Cc5c[nH]c6ccccc56)C(=O)N[C@@H](C)C(=O)N[C@@H](Cc5ccc(O)cc5)C(=O)N[C@@H](Cc5c[nH]c6ccccc56)C(=O)N5CCC[C@H]5C(=O)N5CCC[C@H]5C(=O)N[C@H](C(=O)N[C@@H](C)C(N)=O)C(C)C)CC[C@]4(C)[C@H]3CC[C@]12C [Compound 26, R = BEEOOUUUUWWAYWPPVA-CONH2] ({Pentanoyl(5-NH-cholesteryl)-βAla}-EE[PEG3][PEG3][Aib][Aib][Aib][Aib]WWAYWPPVA-NH2) | 100 nM | 8000 nM | 14 µM (≈ 38.1 µg/mL) |  |  |  |  |  | 
3 | CC(C)[C@H](NC(=O)[C@@H](NC(=O)[C@@H]1CCCN1C(=O)[C@@H]1CCCN1C(=O)[C@H](Cc1ccc(O)cc1)NC(=O)[C@H](Cc1c[nH]c2ccccc12)NC(=O)[C@H](Cc1ccc(O)cc1)NC(=O)[C@H](Cc1c[nH]c2ccccc12)NC(=O)[C@H](C)NC(=O)[C@H](Cc1ccc(O)cc1)NC(=O)[C@H](Cc1c[nH]c2ccccc12)NC(=O)[C@H](C)NC(=O)C(C)(C)NC(=O)C(C)(C)NC(=O)C(C)(C)NC(=O)C(C)(C)N)C(C)C)C(N)=O [Compound 81] (H-[Aib][Aib][Aib][Aib]AWYAWYWYPPVV-NH2) |  |  |  | 83 ± 13% | 9000 ± 6000 nM | > 8000 nM | 3 ± 1 µM (≈ 5.82 µg/mL) |  | 
4 | CC(C)[C@H](NC(=O)[C@@H](NC(=O)[C@@H]1CCCN1C(=O)[C@@H]1CCCN1C(=O)[C@H](Cc1c[nH]c2ccccc12)NC(=O)[C@H](Cc1c[nH]c2ccccc12)NC(=O)[C@H](C)NC(=O)[C@H](Cc1c[nH]c2ccccc12)NC(=O)[C@H](Cc1ccc(O)cc1)NC(=O)C(C)(C)NC(=O)C(C)(C)NC(=O)C(C)(C)NC(=O)C(C)(C)N)C(C)C)C(N)=O [Compound 52] (H-[Aib][Aib][Aib][Aib]YWAWWPPVV-NH2) |  |  |  | 105 ± 19% | 3200 ± 1400 nM | > 16000 nM | 21 ± 1 µM (≈ 32.4 µg/mL) |  | Efficacy (% of max. 1) ([1]; Table 1, 14 hours): 87%; EC50 [1, 7]: 1900 nM
5 | CCCCCCCCCCCCCCCC(=O)NCCCCC(=O)NCCC(=O)N[C@@H](CCC(=O)O)C(=O)N[C@@H](CCC(=O)O)C(=O)NCCOCCOCCOCCC(=O)NCCOCCOCCOCCC(=O)NC(C)(C)C(=O)NC(C)(C)C(=O)NC(C)(C)C(=O)NC(C)(C)C(=O)N[C@@H](Cc1c[nH]c2ccccc12)C(=O)N[C@@H](Cc1c[nH]c2ccccc12)C(=O)N[C@@H](C)C(=O)N[C@@H](Cc1ccc(O)cc1)C(=O)N[C@@H](Cc1c[nH]c2ccccc12)C(=O)N1CCC[C@H]1C(=O)N1CCC[C@H]1C(=O)N[C@H](C(=O)N[C@@H](C)C(N)=O)C(C)C [Compound 32, R′ - BEEOOUUUUWWAYWPPVA-CONH2] ({Palmitoyl-Ava-βAla}-EE[PEG3][PEG3][Aib][Aib][Aib][Aib]WWAYWPPVA-NH2) |  |  | 856 µM (≈ 2220 µg/mL) |  |  |  |  |  | Efficacy (% of max. 1) ([1]; Table 1, 14 hours): 121%; Potency relative to Compound 26 ([1]; palmitic acid derivative vs cholesterylamine): sevenfold less potent; EC50 [1, 7]: 700 nM; IC50 (Jurkat lymphocytes; read-out: Toxicity (IC50), Table 1, Jurkat lymphocytes, 48 h at 37° C.): 16000 nM; Solubility in PBS relative to Compound 26 ([2]; PBS): sixtyfold more soluble
6 | C#CC[C@H](NC(=O)[C@H](CCC(=O)O)NC(=O)[C@H](CCC(=O)O)NC(=O)CCNC(=O)CCCCN[C@H]1CC[C@@]2(C)C(=CC[C@H]3[C@@H]4CC[C@H]([C@H](C)CCCC(C)C)[C@@]4(C)CC[C@@H]32)C1)C(=O)NCCOCCOCCOCCC(=O)NCCOCCOCCOCCC(=O)NC(C)(C)C(=O)NC(C)(C)C(=O)NC(C)(C)C(=O)NC(C)(C)C(=O)N[C@@H](Cc1ccc(O)cc1)C(=O)N[C@@H](Cc1ccc(O)cc1)C(=O)N[C@@H](C)C(=O)N[C@@H](Cc1ccc(O)cc1)C(=O)N[C@@H](Cc1ccc(O)cc1)C(=O)N1CCC[C@H]1C(=O)N1CCC[C@H]1C(=O)N[C@H](C(=O)N[C@H](C(N)=O)C(C)C)C(C)C [Compound 30, R = BEEZOOUUUUYYAYYPPVV-CONH2] ({Pentanoyl(5-NH-cholesteryl)-βAla}-EE[Pra][PEG3][PEG3][Aib][Aib][Aib][Aib]YYAYYPPVV-NH2) | 30 nM | 2000 nM |  |  |  |  |  | < 5 µM | Solubility (aq., μM) ([2]; Table 1, PBS pH 7.4, 24 hours at 22° C., ±S.D.): 3 ± 1 µM (≈ 8.32 µg/mL)
7 | C#CC[C@H](NC(=O)[C@H](CCC(=O)O)NC(=O)[C@H](CCC(=O)O)NC(=O)CCNC(=O)CCNC(=O)O[C@H]1CC[C@@]2(C)C(=CC[C@H]3[C@@H]4CC[C@H]([C@H](C)CCCC(C)C)[C@@]4(C)CC[C@@H]32)C1)C(=O)NCCOCCOCCOCCC(=O)NCCOCCOCCOCCC(=O)NC(C)(C)C(=O)NC(C)(C)C(=O)NC(C)(C)C(=O)NC(C)(C)C(=O)N[C@@H](Cc1c[nH]c2ccccc12)C(=O)N[C@@H](Cc1c[nH]c2ccccc12)C(=O)N[C@@H](C)C(=O)N[C@@H](Cc1ccc(O)cc1)C(=O)N[C@@H](Cc1c[nH]c2ccccc12)C(=O)N1CCC[C@H]1C(=O)N1CCC[C@H]1C(=O)N[C@H](C(=O)N[C@@H](C)C(N)=O)C(C)C [Compound 35, R″ = BEEZOOUUUUWWAYWPPVA-CONH2] ({Cholesteryloxycarbonyl-βAla-βAla}-EE[Pra][PEG3][PEG3][Aib][Aib][Aib][Aib]WWAYWPPVA-NH2) | 110 nM | 13000 nM |  |  |  |  |  | 649 ± 11 µM (≈ 1840 µg/mL) | Difference in solubility relative to Compound 31 ([2]; PBS): greater than hundredfold
8 | CC(C)CCC[C@@H](C)[C@H]1CC[C@H]2[C@@H]3CC=C4C[C@@H](NCCCCC(=O)N[C@@H](CCC(=O)O)C(=O)N[C@@H](CCC(=O)O)C(=O)NCCCCCC(=O)NCCCCCC(=O)N[C@@H](C)C(=O)N[C@@H](C)C(=O)N[C@@H](C)C(=O)N[C@@H](Cc5c[nH]c6ccccc56)C(=O)N[C@@H](Cc5c[nH]c6ccccc56)C(=O)N[C@@H](C)C(=O)N[C@@H](Cc5ccc(O)cc5)C(=O)N[C@@H](Cc5c[nH]c6ccccc56)C(=O)N5CCC[C@H]5C(=O)N5CCC[C@H]5C(=O)N[C@H](C(=O)N[C@@H](C)C(N)=O)C(C)C)CC[C@]4(C)[C@H]3CC[C@]12C [Compound 5, R = EEXXAAAWWAYWPPVA-CONH2] ({Pentanoyl(5-NH-cholesteryl)}-EE[Ahx][Ahx]AAAWWAYWPPVA-NH2) | 400 nM | 14000 nM |  |  |  |  |  | 10 ± 1 µM (≈ 23.4 µg/mL) | 
9 | CC(C)CCC[C@@H](C)[C@H]1CC[C@H]2[C@@H]3CC=C4C[C@@H](NCCCCC(=O)NCCC(=O)N[C@@H](CCC(=O)O)C(=O)N[C@@H](CCC(=O)O)C(=O)NCCOCCOCCOCCC(=O)NCCOCCOCCOCCC(=O)NC(C)(C)C(=O)NC(C)(C)C(=O)NC(C)(C)C(=O)NC(C)(C)C(=O)N[C@@H](Cc5ccc(O)cc5)C(=O)N[C@@H](Cc5ccc(O)cc5)C(=O)N[C@@H](C)C(=O)N[C@@H](Cc5ccc(O)cc5)C(=O)N[C@@H](Cc5ccc(O)cc5)C(=O)N5CCC[C@H]5C(=O)N5CCC[C@H]5C(=O)N[C@H](C(=O)N[C@H](C(N)=O)C(C)C)C(C)C)CC[C@]4(C)[C@H]3CC[C@]12C [Compound 28, R = BEEOOUUUUYYAYYPPVV-CONH2] ({Pentanoyl(5-NH-cholesteryl)-βAla}-EE[PEG3][PEG3][Aib][Aib][Aib][Aib]YYAYYPPVV-NH2) | 60 nM | 3000 nM |  |  |  |  |  | 63 ± 28 µM (≈ 169 µg/mL) | 
10 | CC(=O)NC(C)(C)C(=O)NC(C)(C)C(=O)NC(C)(C)C(=O)NC(C)(C)C(=O)N[C@@H](Cc1c[nH]c2ccccc12)C(=O)N[C@@H](Cc1ccc(O)cc1)C(=O)N[C@@H](C)C(=O)N[C@@H](Cc1c[nH]c2ccccc12)C(=O)N[C@@H](Cc1ccc(O)cc1)C(=O)N[C@@H](C)C(=O)N[C@@H](Cc1c[nH]c2ccccc12)C(=O)N[C@@H](Cc1ccc(O)cc1)C(=O)N1CCC[C@H]1C(=O)N1CCC[C@H]1C(=O)N[C@H](C(=O)N[C@H](C(N)=O)C(C)C)C(C)C [Compound 82] (Ac-[Aib][Aib][Aib][Aib]WYAWYAWYPPVV-NH2) |  |  |  | 85 ± 7% | 800 ± 200 nM | > 16000 nM | 2 ± 1 µM (≈ 3.96 µg/mL) |  | 
